Results on one compound are retold here after patent US20260373078A1 (NANJING QINLING PHARMACEUTICAL TECHNOLOGY COMPANY LIMITED, priority 2023, published 2026).

Data set [1] can be described thus: Water solubility of wogonin / uniform solution with arginine. Type of data set: physicochemical. To be noted: arginine 2%-10% (w/v). The text has this:
In addition, in order to ensure that a pH of the solution remains stable within a range of 7.0-11.0, an appropriate amount of citric acid may need to be added to the formulation, with a content of 0.01%-0.05% (w/v).

Data set [2] has as its system human glioma cancer cells. To be noted: Tsai et al., Int J Mol Sci. 2012; cited from earlier work.

Take `COc1c(O)cc(O)c2c(=O)cc(-c3ccccc3)oc12` [Wogonin, wogonin]: in data set [1], the “content of wogonin at which a uniform solution may be obtained” value is 0.1-5.0 % (w/v). Moreover, in data set [2], the “reactive oxygen species production and cell apoptosis” value was “induces reactive oxygen species production and cell apoptosis”.
